Measurements published in article PMC9569971, “New Oxazolo[5,4-d]pyrimidines as Potential Anticancer Agents: Their Design, Synthesis, and In Vitro Biological Activity Research” (International Journal of Molecular Sciences, 2022).
“Also recorded” adds a separate entry of the source. Marks after values point to notes of the source that are not given here.

Legend:
[1] = system: primary colon adenocarcinoma (HT29); experiment: MTT viability assay, HT29; assay type: cell-based, human
Method: (§1) When the confluence was greater than 70%, adherent cell lines were detached from the bottle surface with a TrypLE solution and then used in assays or reduced. The cells were collected into centrifuge tubes and centrifuged at 1000× g for 5 min at room temperature. The supernatant was removed to dry. The cell pellets were then resuspended in an appropriate medium. The cells were counted using a Bürker chamber and resuspended in 96-well plates to a cell density of 10,000 cells per well for MTT assay. For the rhodamine accumulation test and the detection of apoptosis assay, cells were seeded at a density of 30,000 per well. In the migration assay, cells were seeded at a density of 20,000 per well, and monolayer formation was awaited.
(§2) In this study, normal human dermal fibroblasts (NHDFs), breast cancer cells (MCF7), human lung adenocarcinoma cells (A549), murine fibroblasts (L929), colon adenocarcinoma cells (HT29), and colorectal adenocarcinoma cells (LoVo) were used. All cell lines were cultured in the recommended media. […] The human lung adenocarcinoma cell line A549 and breast cancer cell line MCF-7 were obtained from the ECACC. These cell lines were cultured in Eagle’s minimal essential medium (MEM). Murine fibroblast L929 (Sigma-Aldrich, Merck Group, Headquarters, Darmstadt, Germany; the European Collection of Authenticated Cell Cultures—ECACC) cells were grown in DMEM. […] All media were supplemented with 10% FBS and 100 µg/mL of penicillin–streptomycin.
(§3) All compounds were dissolved in DMSO and the reference drugs were dissolved in physiological saline to concentrations of 10 mM. Concentrations from 1 to 500 μM in the media recommended for the cell lines were prepared for the tests.
(§4) All of the synthesized derivatives were evaluated via the MTT assay. All cell lines were seeded into 96-well plates at a density of 10,000 cells per well. To allow the cells to adhere to the surface of the plates, they were incubated overnight before the application of the test compounds. […] The tests were performed for concentrations of 1, 5, 10, 25, 50, 100, 250, and 500 μM. The solutions of the test compounds were removed from the culture on the 96-well plates. […] The supernatant was then removed. The violet crystal was dissolved in isopropanol for 30 min by shaking. Absorbance was measured at 570 nm.
(§5) Biological assays were performed in three independent replicates, and each replicate used four samples. Three repetitions were made for the ELISA determinations. For the assessment of cytotoxicity, mathematical models were developed using the GraphPad PRISM software, based on which CC50 was determined. The values of CC50 were estimated based on nonlinear regression using the dependence of the biological effect on the molar concentrations of the compounds (four-parameter logistic model with Hill slope).

[2] = system: lung adenocarcinoma (A549); experiment: MTT viability assay, A549; assay type: cell-based, human
Method: as §1, §2, §3, §4, §5

[3] = biological target: T1, P-glycoprotein (P-gp) in HT29 cells (Homo sapiens, UniProt P08183); experiment: Rhodamine-123 (Rh-123) accumulation assay; assay type: cell-based; settings: HT29, 24 h, over all tested concentrations (1–20 μM)
T1 construct: evaluate their effects on the efflux activity of P-gp in HT29 cells; host or cells: HT29 colon adenocarcinoma cells
Method: as §1
The level of significance was set at p < 0.05.

[4] = system: murine fibroblasts (L929); experiment: MTT viability assay, L929; assay type: cell-based; settings: tested 1–500 µM
Method: as §1, §2, §3, §4, §5

[5] = system: breast adenocarcinoma (MCF7); experiment: MTT viability assay, MCF7; assay type: cell-based, human; settings: MCF7, MTT, tested 1–500 µM
Method: as §1, §2, §3, §4, §5

[6] = system: normal human dermal fibroblasts (NHDF); experiment: MTT viability assay, NHDF; assay type: cell-based; settings: tested 1–500 µM
Method: as §1, §2, §3, §4, §5

[7] = system: HT29 primary colon adenocarcinoma cells; experiment: Detection of apoptosis (Annexin V FITC / propidium iodide); assay type: cell-based, human; design: unit not given here; settings: 24 h
Method: as §1, with “All cell lines were grown in 5% CO2 at 95% humidity and 37 °C, with both morphology and confluence assessed twice per week. When” for “When”
HT29 primary colon adenocarcinoma cells were grown in 96-well plates for 24 h. The 5 selected derivatives were added at concentrations of 1, 2, 5, and 10 µM, and then incubated for 24 h. The mixture of Annexin V conjugated with fluorescein and propidium iodide in PBS with Mg^2+ and Ca^2+ ions (Thermo Fisher Scientific, Waltham, MA, USA) was then applied. The incubation lasted 20 min at 37 °C. Pictures were taken using a fluorescence microscope. Thirteen images were taken from each well using an EVOS FL fluorescence microscope, with three replications for each compound. The open ImageJ space was used to analyze the number of cells. The Thermo Fisher Dead Cell Apoptosis Kit with Annexin V FITC and Propidium Iodide (PI) detects phosphatidylserine extrusion in apoptotic cells using Annexin V conjugated with a green fluorescent FITC dye and dead cells stained by PI with red fluorescence.

Jurkat T-cell = system: Jurkat T-cell; design: method as in PMID 32759841; settings: cited from earlier work
HT29 = system: HT29; design: method as in PMID 32759841; settings: estimated based on data taken from reference; cited from earlier work

T1 sequence (P08183 whole entry): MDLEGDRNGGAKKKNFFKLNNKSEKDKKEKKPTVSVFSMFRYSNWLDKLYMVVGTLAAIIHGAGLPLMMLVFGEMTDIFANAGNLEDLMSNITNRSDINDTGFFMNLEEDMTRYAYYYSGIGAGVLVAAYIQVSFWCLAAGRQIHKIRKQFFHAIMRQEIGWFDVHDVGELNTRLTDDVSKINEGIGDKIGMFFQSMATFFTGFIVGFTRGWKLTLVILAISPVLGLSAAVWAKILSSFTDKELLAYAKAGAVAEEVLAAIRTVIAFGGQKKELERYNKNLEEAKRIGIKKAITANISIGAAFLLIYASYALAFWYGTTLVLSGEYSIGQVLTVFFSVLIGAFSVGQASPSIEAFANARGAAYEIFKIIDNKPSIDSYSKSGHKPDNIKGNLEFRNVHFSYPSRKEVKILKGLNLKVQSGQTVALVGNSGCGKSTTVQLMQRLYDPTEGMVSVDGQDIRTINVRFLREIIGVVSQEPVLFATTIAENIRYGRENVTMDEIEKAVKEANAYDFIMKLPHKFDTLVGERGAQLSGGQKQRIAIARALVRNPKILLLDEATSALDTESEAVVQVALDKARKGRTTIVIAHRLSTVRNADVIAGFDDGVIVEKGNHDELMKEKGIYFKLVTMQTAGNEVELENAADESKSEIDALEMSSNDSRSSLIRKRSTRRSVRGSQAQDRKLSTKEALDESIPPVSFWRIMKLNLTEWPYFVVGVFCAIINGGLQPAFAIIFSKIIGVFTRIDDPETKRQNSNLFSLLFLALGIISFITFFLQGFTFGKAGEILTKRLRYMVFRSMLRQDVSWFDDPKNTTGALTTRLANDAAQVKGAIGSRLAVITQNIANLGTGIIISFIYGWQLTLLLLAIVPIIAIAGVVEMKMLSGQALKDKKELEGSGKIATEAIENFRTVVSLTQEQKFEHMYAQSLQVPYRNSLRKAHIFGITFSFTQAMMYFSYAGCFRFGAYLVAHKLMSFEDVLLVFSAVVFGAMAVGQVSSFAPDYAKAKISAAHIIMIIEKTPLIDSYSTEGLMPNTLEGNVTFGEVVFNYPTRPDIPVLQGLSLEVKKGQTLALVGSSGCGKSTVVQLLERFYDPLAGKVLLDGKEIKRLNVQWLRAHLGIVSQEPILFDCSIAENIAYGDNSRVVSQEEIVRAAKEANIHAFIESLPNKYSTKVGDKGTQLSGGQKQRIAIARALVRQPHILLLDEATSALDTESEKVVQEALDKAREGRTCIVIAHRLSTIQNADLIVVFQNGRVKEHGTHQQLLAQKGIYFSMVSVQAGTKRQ

CNc1ncnc2oc(-c3c(C)noc3N)nc12 [Compound 3a, 2-(5-Amino-3-methylisoxazol-4-yl)-7-N-methylaminooxazolo[5,4-d]pyrimidine]
SI (selectivity index) ([1]; CC50 NHDF / CC50 HT29): >>1
CC50 ([1]; Homo sapiens, HT-29, HT29, MTT, tested 1–500 µM): 159 ± 12.1 µM
SI (selectivity index) ([2]; CC50 NHDF / CC50 A549): >>1 ^c
CC50 ([2]; Homo sapiens, A549, MTT, tested 1–500 µM): 245 ± 19 µM
intracellular increase in rhodamine accumulation [3]: no intracellular increase
CC50 ± SD [4]: no toxic activity; also recorded: Non-toxic ^b
CC50 ± SD [5]: no cytotoxic activity
CC50 ± SD [6]: Non-toxic
apoptosis mean ([7]; 1 μM): 6.89
late apoptosis mean ([7]; 1 μM): 11.16
necrosis mean ([7]; 1 μM): 4.43
percent live (viable) cells ([7]; 1 μM): 77.51
apoptosis mean ([7]; 2 μM): 5.35
late apoptosis mean ([7]; 2 μM): 11.15
necrosis mean ([7]; 2 μM): 9.07
percent live (viable) cells ([7]; 2 μM): 74.42
apoptosis mean ([7]; 5 μM): 9.38
late apoptosis mean ([7]; 5 μM): 11.51
necrosis mean ([7]; 5 μM): 2.76
percent live (viable) cells ([7]; 5 μM): 76.34
apoptosis mean ([7]; 10 μM): 10.99
late apoptosis mean ([7]; 10 μM): 12.07
necrosis mean ([7]; 10 μM): 5.55
percent live (viable) cells ([7]; 10 μM): 71.40

Cc1nc(NCCCN(C)C)c2nc(-c3c(C)noc3N)oc2n1 [SCM9]
expression of apoptosis-modulating proteins (Jurkat T-cell; Jurkat T-cell model): did not alter
expression of MAPK pathway components JNK, p38α, and p38β (Jurkat T-cell): increased
CC50 (HT29): 39.1 ± 7.79 µM
